Assay results published in patent US9198420B2, “Rodenticidal norbormide analogues” (priority 2012, dated 2015).
Where two headings read alike, the source gives them in different places. Marks after values point to notes of the source that are not given here.

Tests used:
[1] = tested on: rat caudal artery; assay: Rat caudal artery ring contractile force (vasoconstrictory activity); set-up: species or system rat (male Wistar)
Outline: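 Endothelium-denuded caudal artery rings from male Wistar rats were held at 2 g resting tension in Tyrode solution (37° C, pH 7.35, 95% O2/CO2) and isometric force was recorded. Compounds were tested at 50 μM, with contraction expressed as percent of the 90 mM KCl response.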

[2] = tested on: Sprague Dawley rats; assay: In vivo lethality, oral gavage; set-up: species or system rat (Sprague Dawley); conditions: rat; for Time to Death (min) / Onset of Symptoms: mean time; for Onset of Symptoms: visual signs of distress consistent with NRB-like symptoms
Outline: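 Sprague Dawley rats (150-200 g) received compound dissolved in 0.2 M HCl (5% DMSO overall) at the desired dose, by oral gavage or tail-vein i.v. injection. Animals were watched for early toxicity signs every minute (i.v.) or every 15 min (oral).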

[3] = tested on: Sprague Dawley rats; assay: Palatability (no-choice) trial, peanut butter bait; type: in vivo, rat (Sprague Dawley); conditions: po, 1% w/w toxicant in peanut butter bait
Source text: In the palatability trials, Sprague Dawley rats (ca. 250 g) were presented with 1% w/w compound (n=6) or 0.5% w/w compound (n=5) in a peanut butter bait, following 3 days ‘pre-baiting’ with a peanut butter formulation free of toxicant.

[4] = tested on: Sprague Dawley rats; assay: In vivo lethality, intravenous injection via the tail; set-up: species or system rat (Sprague Dawley); conditions: rat
Experimental: Sprague Dawley rats (150-200 g) were used to appraise the rodenticidal activity of the compounds put forward for in vivo evaluation. Briefly, prior to administration the compounds were dissolved in 0.2 M hydrochloric acid (5% DMSO overall), to the desired dose, and without delay either injected intravenously, via the tail, or orally gavaged. All treated animals were housed in a quiet room and monitored every minute (i.v) or every 15 min (oral) to verify early signs of toxicity.

[5] = Table 1, read-out: Vasoconstriction: maximum contractile effect as a % of 90 mM KCl contraction
[6] = n = 6, 3 male and 3 female rats, Table 12, read-out: No of deaths (converted)
[7] = n = 6, 3 male and 3 female rats, Table 11, read-out: No of deaths (converted)

For `CCCC(=O)OCN1C(=O)C2C3C=C(C(O)(c4ccccc4)c4ccccn4)C(C3=C(c3ccccc3)c3ccccn3)C2C1=O` (stereo not drawn) [Compound 9, N-Butanoyloxymethyl-5-(α-hydroxy-α-2-pyridylbenzyl)-7-(α-2-pyridylbenzylidene)-5-norbornene-2,3-dicarboximide], the Emax [1, 5] was 86%, the “Vasoconstriction: maximum contractile effect as a % of 90 mM KCl contraction” value ([1]; Table 4, pre-cleavage, n = 3) was 86% and the melting point was 68 to 79 °C.
For `CC(C)c1ccc(C=CC(=O)OCCN2C(=O)C3C4C=C(C(O)(c5ccccc5)c5ccccn5)C(C4=C(c4ccccc4)c4ccccn4)C3C2=O)cc1` (stereo not drawn) [Compound 347, 5-(α-Hydroxy-α-2-pyridylbenzyl)-N-[2′-(4″-isopropylcinnamoyloxy)ethyl]-7-(α-2-pyridylbenzylidene)-5-norbornene-2,3-dicarboximide], the “Time to Death (min)” value ([2]; 20 mg/Kg) was “not lethal”, the “Onset of Symptoms” value ([2]; 20 mg/Kg) was 20 min and the “In vivo lethality (oral)” value ([2]; 40 mg/Kg, n = 2) was “yes^h”. For the same compound, the Emax [1, 5] was 0%, the “Vasoconstriction: maximum contractile effect as a % of 90 mM KCl contraction” value ([1]; Table 4, pre-cleavage, n = 3) was 0% and the mortality at 1 % [3, 6] was 50%.
With `CCOc1ccc(C=CC(=O)NCCN2C(=O)C3C4C=C(C(O)(c5ccccc5)c5ccccn5)C(C4=C(c4ccccc4)c4ccccn4)C3C2=O)cc1` (stereo not drawn) [Compound 345, N-[2′-(4″-Ethoxycinnamamido)ethyl]-5-(α-hydroxy-α-2-pyridylbenzyl)-7-(α-2-pyridylbenzylidene)-5-norbornene-2,3-dicarboximide] the “Time to Death (min)” value ([2]; 20 mg/Kg) was 65^d min, the “Onset of Symptoms” value ([2]; 20 mg/Kg) was 15 min and the “In vivo lethality (oral)” value ([2]; 20 mg/Kg, n = 2) was “yes^h,i”. For the same compound, the “In vivo lethality (oral)” value ([2]; 40 mg/Kg, n = 2) was “yes^h,i”, the Emax ([1]; Table 2, read-out: Vasoconstriction: maximum contractile effect as a % of 90 mM KCl contraction) was 0% and the “Vasoconstriction: maximum contractile effect as a % of 90 mM KCl contraction” value ([1]; Table 4, pre-cleavage, n = 3) was 0%. The mortality at 1 % [3, 6] was 33.3%.
For `NCc1ccc(C(=O)OCCN2C(=O)C3C4C=C(C(O)(c5ccccc5)c5ccccn5)C(C4=C(c4ccccc4)c4ccccn4)C3C2=O)cc1.O=C(O)C(F)(F)F` (stereo not drawn) [Compound 342, N-[2′-(4-Aminomethylbenzoyloxy)ethyl]-5-(α-hydroxy-α-2-pyridylbenzyl)-7-(α-2-pyridylbenzylidene)-5-norbornene-2,3-dicarboximide trifluoroacetate], the “In vivo lethality (oral)” value ([2]; 40 mg/Kg, n = 2) was “yes^h”, the Emax [1, 5] was 136% and the “Vasoconstriction: maximum contractile effect as a % of 90 mM KCl contraction” value ([1]; Table 4, pre-cleavage, n = 3) was 136%. For the same compound, the mortality at 1 % [3, 7] was 66.7%.
With `O=C(C=Cc1ccc(Cl)c(Cl)c1)OCCN1C(=O)C2C3C=C(C(O)(c4ccccc4)c4ccccn4)C(C3=C(c3ccccc3)c3ccccn3)C2C1=O` (stereo not drawn) [Compound 134, N-[2′-(3″,4″-Dichlorocinnamoyloxy)ethyl]-5-(α-hydroxy-α-2-pyridylbenzyl)-7-(α-2-pyridylbenzylidene)-5-norbornene-2,3-dicarboximide] the Emax [1, 5] was 0%, the “Vasoconstriction: maximum contractile effect as a % of 90 mM KCl contraction” value ([1]; Table 4, pre-cleavage, n = 3) was 0% and the melting point was 99 to 104 °C.
For `COc1cc(C=CC(=O)OCCN2C(=O)C3C4C=C(C(O)(c5ccccc5)c5ccccn5)C(C4=C(c4ccccc4)c4ccccn4)C3C2=O)cc(OC)c1OC` (stereo not drawn) [Compound 133, 5-(α-Hydroxy-α-2-pyridylbenzyl)-7-(α-2-pyridylbenzylidene)-N-[2′-(3″,4″,5″-trimethoxycinnamoyloxy)ethyl]-5-norbornene-2,3-dicarboximide], the Emax [1, 5] was 30% and the melting point was 109 to 113 °C.
With `CCCCCCCC(=O)OCN1C(=O)C2C3C=C(C(O)(c4ccccc4)c4ccccn4)C(C3=C(c3ccccc3)c3ccccn3)C2C1=O` (stereo not drawn) [Compound 10, 5-(α-Hydroxy-α-2-pyridylbenzyl)-N-octanoyloxymethyl-7-(α-2-pyridylbenzylidene)-5-norbornene-2,3-dicarboximide] the “Time to Death (min)” value ([2]; 20 mg/Kg) was “not lethal”, the “Onset of Symptoms” value ([2]; 20 mg/Kg) was 15 min and the “In vivo lethality (oral)” value ([2]; 40 mg/Kg, n = 2) was “yes^h”. The “In vivo lethality (i.v.)” value ([4]; 20 mg/Kg, n = 2) was “yes^f”, the Emax [1, 5] was 0% and the “Vasoconstriction: maximum contractile effect as a % of 90 mM KCl contraction” value ([1]; Table 4, pre-cleavage, n = 3) was 0%. It also gave a mortality at 1 % [3, 7] of 100%.
For `COc1ccccc1C(=O)OCN1C(=O)C2C3C=C(C(O)(c4ccccc4)c4ccccn4)C(C3=C(c3ccccc3)c3ccccn3)C2C1=O` (stereo not drawn) [Compound 13, 5-(α-Hydroxy-α-2-pyridylbenzyl)-N-o-methoxybenzoyloxymethyl-7-(α-2-pyridylbenzylidene)-5-norbornene-2,3-dicarboximide], the Emax [1, 5] was 90%, the “Vasoconstriction: maximum contractile effect as a % of 90 mM KCl contraction” value ([1]; Table 4, pre-cleavage, n = 3) was 90% and the melting point was 83 to 88 °C.
In the case of `O=C(C=Cc1ccc(OC(F)(F)F)cc1)OCCN1C(=O)C2C3C=C(C(O)(c4ccccc4)c4ccccn4)C(C3=C(c3ccccc3)c3ccccn3)C2C1=O` (stereo not drawn) [Compound 127, 5-(α-Hydroxy-α-2-pyridylbenzyl)-7-(α-2-pyridylbenzylidene)-N-[2′-(4″-trifluoromethoxycinnamoyloxy)ethyl]-5-norbornene-2,3-dicarboximide], the Emax [1, 5] is reported as 0%, the “Vasoconstriction: maximum contractile effect as a % of 90 mM KCl contraction” value ([1]; Table 4, pre-cleavage, n = 3) is reported as 0% and the melting point is reported as 100 to 105 °C.
With `COc1ccc(C(=O)OCN2C(=O)C3C4C=C(C(O)(c5ccccc5)c5ccccn5)C(C4=C(c4ccccc4)c4ccccn4)C3C2=O)cc1` (stereo not drawn) [Compound 15, 5-(α-Hydroxy-α-2-pyridylbenzyl)-N-p-methoxybenzoyloxymethyl-7-(α-2-pyridylbenzylidene)-5-norbornene-2,3-dicarboximide] the Emax [1, 5] was 0%, the “Vasoconstriction: maximum contractile effect as a % of 90 mM KCl contraction” value ([1]; Table 4, pre-cleavage, n = 3) was 0% and the melting point was 94 to 112 °C.
For `O=C(Cc1ccccc1)OCN1C(=O)C2C3C=C(C(O)(c4ccccc4)c4ccccn4)C(C3=C(c3ccccc3)c3ccccn3)C2C1=O` (stereo not drawn) [Compound 16, 5-(α-Hydroxy-α-2-pyridylbenzyl)-N-phenylacetyloxymethyl-7-(α-2-pyridylbenzylidene)-5-norbornene-2,3-dicarboximide], the “Time to Death (min)” value ([2]; 20 mg/Kg) was 90^d min, the “Onset of Symptoms” value ([2]; 20 mg/Kg) was 15 min and the “In vivo lethality (oral)” value ([2]; 20 mg/Kg, n = 2) was “yes^h,i”. For the same compound, the “In vivo lethality (oral)” value ([2]; 40 mg/Kg, n = 2) was “yes^h,i”, the “In vivo lethality (i.v.)” value ([4]; 20 mg/Kg, n = 2) was “yes^f” and the Emax [1, 5] was 15%. For the same compound, the “Vasoconstriction: maximum contractile effect as a % of 90 mM KCl contraction” value ([1]; Table 4, pre-cleavage, n = 3) was 15% and the mortality at 1 % [3, 7] was 83.3%.
With `O=C1C2C3C=C(C(O)(c4ccccc4)c4ccccn4)C(C3=C(c3ccccc3)c3ccccn3)C2C(=O)N1CCCO` (stereo not drawn) [Compound 104, N-3′-Hydroxypropyl-5-(α-hydroxy-α-2-pyridylbenzyl)-7-(α-2-pyridylbenzylidene)-5-norbornene-2,3-dicarboximide] the “In vivo lethality (oral)” value ([2]; 40 mg/Kg, n = 3, Table 8) was “yes^c”, the “In vivo lethality (i.v.)” value ([4]; 20 mg/Kg, n = 3, Table 8) was “yes^b” and the “Vasoconstriction: maximum contractile effect as a % of 90 mM KCl contraction” value ([1]; Table 7, compounds of formula (V)) was “≧132%”. The “Vasoconstriction: maximum contractile effect as a % of 90 mM KCl contraction” value ([1]; n = 3, Table 8) was “≧132%”.
For `O=C1NC(=O)C2C3C(C(O)(c4ccccc4)c4ccccn4)=CC(C3=C(c3ccccc3)c3ccccn3)C12` (stereo not drawn) [endo-NRB, 5-(α-Hydroxy-α-2-pyridylbenzyl)-7-(α-2-pyridylbenzylidene)-5-norbornene-2,3-dicarboximide, reference compound], the “Time to Death (min)” value ([2]; 20 mg/Kg) was 35^d min, the “Onset of Symptoms” value ([2]; 20 mg/Kg) was 5 min and the “In vivo lethality (oral)” value ([2]; 20 mg/Kg, n = 2) was “yes^h,i”. For the same compound, the “In vivo lethality (oral)” value ([2]; 20 mg/Kg, n = 2, Table 6) was “yes^g,h”, the “In vivo lethality (oral)” value ([2]; 20 mg/Kg, n = 3, Table 8) was “yes^c,d” and the “In vivo lethality (oral)” value ([2]; 40 mg/Kg, n = 2) was “yes^h,i”. For the same compound, the “In vivo lethality (oral)” value ([2]; 40 mg/Kg, n = 2, Table 6) was “yes^g,h”, the “In vivo lethality (oral)” value ([2]; 40 mg/Kg, n = 3, Table 8) was “yes^c,d” and the “In vivo lethality (i.v.)” value ([4]; 10 mg/Kg, n = 2) was “yes^f,g”. The “In vivo lethality (i.v.)” value ([4]; 10 mg/Kg, n = 2, Table 6) was “yes^e,f”, the “In vivo lethality (i.v.)” value ([4]; 20 mg/Kg, n = 2) was “yes^f,g” and the “In vivo lethality (i.v.)” value ([4]; 20 mg/Kg, n = 2, Table 6) was “yes^e,f”. For the same compound, the “In vivo lethality (i.v.)” value ([4]; 20 mg/Kg, n = 3, Table 8) was “yes^b”, the “Vasoconstriction: maximum contractile effect as a % of 90 mM KCl contraction” value ([1]; Table 4, pre-cleavage, n = 3) was 132% and the “Vasoconstriction: maximum contractile effect as a % of 90 mM KCl contraction” value ([1]; n = 3, Table 8) was 132%. The “Vasoconstriction: maximum contractile effect as a % of 90 mM KCl contraction” value ([1]; n = 3, pre-cleavage, Table 6) was 132%, the mortality at 1 % [3, 7] was 66.7% and the mortality at 1 % [3, 6] was 50%. For the same compound, the mortality at 1 % ([3]; n = 6, male rats only, Table 10, read-out: No of deaths (converted)) was 50%.
